The record followed here is ChEMBL document CHEMBL5523747, “Discovery of a Series of Orally Bioavailable Androgen Receptor Degraders for the Treatment of Prostate Cancer” (J Med Chem, 2024).

The nature of data set [1]: Oral bioavailability in Beagle dog at 1 mg/kg. As to conditions: in vivo. Type of data set: ADME, organism-based, Canis lupus familiaris.
A short description of data set [2]: Half life in CD-1 mouse at 1 mg/kg, po and 0.5 mg/kg, iv bolus. Type of data set: ADME, organism-based. The note with it: in vivo.
Data set [3] is described as follows: Oral bioavailability in CD-1 mouse at 1 mg/kg. Type of data set: ADME, organism-based. As to conditions: in vivo.
The nature of data set [4]: Volume of distribution at steady state in CD-1 mouse at 1 mg/kg, po and 0.5 mg/kg, iv. Type of data set: ADME, organism-based. The note with it: in vivo.
Data set [5] has as its system LNCaP. As to the kind of experiment: Effect on AR mRNA level in human LNCaP cells at 0.0001 to 10 uM measured after 24 hrs incubation by QRTPCR analysis. Type of data set: functional, cell-based. As to conditions: dose 0.0001-10 µM.
Data set [6] is described as follows: Oral bioavailability in Han Wistar rat at 1 mg/kg. Type of data set: ADME, organism-based. The note with it: in vivo.
Data set [7] can be described thus: Half life in Han Wistar rat at 1 mg/kg, po and 0.5 mg/kg, iv bolus. Type of data set: ADME, organism-based. The note with it: in vivo.
The nature of data set [8]: Volume of distribution at steady state in Han Wistar rat at 1 mg/kg, po and 0.5 mg/kg, iv bolus. Type of data set: ADME, organism-based. As to conditions: in vivo.
Data set [9] has as its target T1, Protein cereblon/Androgen receptor (Homo sapiens, UniProt P10275+Q96SW2). As to the kind of experiment: PROTAC activity at AR/CRBN in adrogen-sensitive human VCaP cells assessed as protein degradation at 0.0001 to 10 uM measured after 24 hrs incubation by Western blot analysis. Type of data set: cell-based. As to conditions: dose 0.0001-10 µM. (In western blotting, separated proteins are transferred to a membrane and probed.)
Target sequence in this assay (P10275 whole entry, looked up): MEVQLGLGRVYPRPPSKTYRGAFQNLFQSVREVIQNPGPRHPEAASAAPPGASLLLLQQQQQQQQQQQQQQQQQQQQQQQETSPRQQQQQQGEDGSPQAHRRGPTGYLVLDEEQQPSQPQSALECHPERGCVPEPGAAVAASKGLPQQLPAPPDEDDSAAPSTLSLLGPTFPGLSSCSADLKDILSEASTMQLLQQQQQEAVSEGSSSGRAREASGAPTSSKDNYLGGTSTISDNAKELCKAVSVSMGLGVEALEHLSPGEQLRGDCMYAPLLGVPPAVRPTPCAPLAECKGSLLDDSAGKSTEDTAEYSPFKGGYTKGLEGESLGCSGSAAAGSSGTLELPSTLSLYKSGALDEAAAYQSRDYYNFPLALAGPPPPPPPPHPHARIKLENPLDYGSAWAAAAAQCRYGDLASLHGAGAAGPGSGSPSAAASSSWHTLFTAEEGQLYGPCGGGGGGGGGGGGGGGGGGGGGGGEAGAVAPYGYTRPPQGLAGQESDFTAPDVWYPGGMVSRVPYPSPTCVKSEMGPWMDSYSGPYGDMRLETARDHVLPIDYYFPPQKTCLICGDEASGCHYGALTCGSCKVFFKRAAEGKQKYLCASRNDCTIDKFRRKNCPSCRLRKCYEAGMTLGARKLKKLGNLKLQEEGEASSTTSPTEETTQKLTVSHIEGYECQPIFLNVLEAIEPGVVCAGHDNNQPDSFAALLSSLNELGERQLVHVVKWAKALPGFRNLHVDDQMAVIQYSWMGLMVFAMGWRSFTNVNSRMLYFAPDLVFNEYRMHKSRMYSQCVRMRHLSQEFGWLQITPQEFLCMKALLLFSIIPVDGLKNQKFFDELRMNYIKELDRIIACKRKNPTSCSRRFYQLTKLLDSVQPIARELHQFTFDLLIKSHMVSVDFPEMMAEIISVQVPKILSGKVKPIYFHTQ
Target sequence in this assay (Q96SW2 whole entry, looked up): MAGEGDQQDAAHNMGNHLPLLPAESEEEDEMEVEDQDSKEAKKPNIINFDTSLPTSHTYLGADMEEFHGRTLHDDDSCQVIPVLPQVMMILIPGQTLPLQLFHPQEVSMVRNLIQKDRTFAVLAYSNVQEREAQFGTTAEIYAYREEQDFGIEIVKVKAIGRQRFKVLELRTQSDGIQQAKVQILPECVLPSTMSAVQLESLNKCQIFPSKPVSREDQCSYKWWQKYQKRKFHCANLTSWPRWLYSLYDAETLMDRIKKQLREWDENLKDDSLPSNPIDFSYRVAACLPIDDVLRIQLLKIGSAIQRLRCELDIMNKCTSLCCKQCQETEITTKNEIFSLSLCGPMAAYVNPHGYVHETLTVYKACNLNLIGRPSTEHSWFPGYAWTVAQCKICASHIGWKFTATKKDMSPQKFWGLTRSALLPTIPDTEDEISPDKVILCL

The nature of data set [10]: Half life in Beagle dog at 1 mg/kg, po and 0.5 mg/kg, iv infusion over 0.25 hrs. Type of data set: ADME, organism-based, Canis lupus familiaris. As to conditions: in vivo.
Data set [11] can be described thus: Half life in CD-1 mouse at 1 mg/kg, po and 0.5 mg/kg, iv. Type of data set: ADME, organism-based. As to conditions: in vivo.
The target of data set [12] is T1, Protein cereblon/Androgen receptor. As to the kind of experiment: PROTAC activity at AR/CRBN in human LNCaP cells assessed as maximal protein degradation measured after 24 hrs incubation by imaging IF assay relative to control. Type of data set: cell-based.
Target sequence in this assay (P10275 whole entry, looked up): as the sequence (P10275 whole entry, looked up) above
Target sequence in this assay (Q96SW2 whole entry, looked up): as the sequence (Q96SW2 whole entry, looked up) above
In data set [13] the test system is LNCaP C4-2. As to the kind of experiment: In vivo antitumor activity in human LNCaP C4-2 cells xenografted in mouse model assessed as tumor growth inhibition at 30 mg/kg, po once daily measured after 28 days relative to control. Type of data set: functional. As to conditions: LNCaP C4-2, 672 h, time 28 day, read-out: TGI. On the technique in general: Xenograft models place foreign cells or tissue in a host animal.

Data set [14] addresses Protein cereblon/Androgen receptor (Homo sapiens, UniProt P10275+Q96SW2, L702H). As to the kind of experiment: PROTAC activity at CRBN/AR L702H mutant (unknown origin) expressed in human LNCaP cells assessed as protein degradation measured after 24 hrs incubation by imaging IF assay. Type of data set: cell-based.
A short description of data set [15]: Volume of distribution at steady state in CD-1 mouse at 1 mg/kg, po and 0.5 mg/kg, iv bolus. Type of data set: ADME, organism-based. As to conditions: in vivo.
Data set [16] deals with LNCaP. As to the kind of experiment: Anti-proliferative activity against human LNCaP cells assessed as number of live cells measured after 7 days by Sytox Green Nucleic Acid stain assay. As to conditions: 168 h, time 7 day. Type of data set: functional.
Data set [17] has as its target T1, Protein cereblon/Androgen receptor. As to the kind of experiment: PROTAC activity at AR/CRBN in human LNCaP cells assessed as protein degradation measured after 24 hrs incubation in presence of excess enzalutamide AR binder by imaging IF assay. Type of data set: cell-based.
Target sequence in this assay (P10275 whole entry, looked up): as the sequence (P10275 whole entry, looked up) above
Target sequence in this assay (Q96SW2 whole entry, looked up): as the sequence (Q96SW2 whole entry, looked up) above
Data set [18] can be described thus: Total plasma concentration in mouse xenografted with human LNCaP C4-2 cells at 30 mg/kg, po once daily measured after 10 days. Type of data set: ADME, organism-based. The note with it: time 10 day, read-out: Cp(T).
Data set [19] in a line: Volume of distribution at steady state in Beagle dog at 1 mg/kg, po and 0.5 mg/kg, iv infusion over 0.25 hrs. The note with it: in vivo. Type of data set: ADME, organism-based, Canis lupus familiaris.
Data set [20] relates to LNCaP C4-2. As to the kind of experiment: In vivo degradation of AR in human LNCaP C4-2 cells xenografted in mouse model assessed as degradation at 30 mg/kg, po once daily measured after 10 days relative to control. Type of data set: functional. As to conditions: time 10 day.
The subject of data set [21] is Protein cereblon/Androgen receptor (Homo sapiens), P10275+Q96SW2 [L702H]. As to the kind of experiment: PROTAC activity at CRBN/AR L702H mutant (unknown origin) expressed in human LNCaP cells assessed as maximal protein degradation measured after 24 hrs incubation by imaging IF assay relative to control. Type of data set: cell-based.
Data set [22] has as its target T1, Protein cereblon/Androgen receptor. As to the kind of experiment: PROTAC activity at AR/CRBN in androgen-independent human LNCaP C4-2 cells assessed as protein degradation at 0.0001 to 10 uM measured after 24 hrs incubation by Western blot analysis. Type of data set: cell-based. The note with it: dose 0.0001-10 µM.
Target sequence in this assay (P10275 whole entry, looked up): as the sequence (P10275 whole entry, looked up) above
Target sequence in this assay (Q96SW2 whole entry, looked up): as the sequence (Q96SW2 whole entry, looked up) above
Data set [23] shares this target. As to the kind of experiment: PROTAC activity at AR/CRBN in human LNCaP cells assessed as protein degradation measured after 24 hrs incubation by imaging IF assay. Type of data set: cell-based.
Target sequence in this assay (P10275 whole entry): as the sequence (P10275 whole entry, looked up) above
Target sequence in this assay (Q96SW2 whole entry): as the sequence (Q96SW2 whole entry, looked up) above
Data set [24] shares this target. As to the kind of experiment: PROTAC activity at AR/CRBN in human LNCaP cells assessed as protein degradation measured after 24 hrs incubation in presence of excess lenalidomide CRBN ligand by imaging IF assay. Type of data set: cell-based.
Target sequence in this assay (P10275 whole entry, looked up): as the sequence (P10275 whole entry, looked up) above
Target sequence in this assay (Q96SW2 whole entry, looked up): as the sequence (Q96SW2 whole entry, looked up) above

Activity calls are given as the source filed them.

Chain of Protein cereblon/Androgen receptor (Homo sapiens, UniProt P10275+Q96SW2, L702H) (P10275 whole entry L702H, stated change not applied): as the sequence (P10275 whole entry, looked up) above, with L702H counted along it
Chain of Protein cereblon/Androgen receptor (Homo sapiens, UniProt P10275+Q96SW2, L702H) (Q96SW2 whole entry, stated change not applied): as the sequence (Q96SW2 whole entry, looked up) above

For `COc1cc(N2CCN(CC3CCN(c4ccc(C5CCN(c6ccc(C#N)c(C(F)(F)F)c6F)CC5)cc4)CC3)CC2)cc2c1C(=O)N(C1CCC(=O)NC1=O)C2` (centres undefined), the bioavailability (as a rule, dose-corrected exposure relative to a reference, in per cent) in [1] stood at 18%; in data set [3], 62%; in data set [6], 29%. The half-life (usually the time needed for the level to fall by half in the phase considered) in data set [2] was 9 h; in [7], 11 h; in [10], 12.5 h; in [11], 9 h. The Vdss was determined as 1.5 L/kg in data set [4], 9 L/kg in [8], 1.5 L/kg in [15] and 2.4 L/kg in data set [19]. In addition, the outcome (in the data set on LNCaP [5]; in data set [17]; in data set [24]) was inactive. Besides, the outcome in data set [9] and in data set [22] was Active. Also, the Emax – broadly, the greatest response seen or fitted, relative to the assay's reference – in [12] is 96%; in [21], 74%. In addition, the inhibition in vivo at 30 mg/kg in the data set on LNCaP C4-2 [13] came out at 70%. Besides, the DC50 (usually the concentration giving 50% degradation) was determined as 92 nM in data set [14] and 22 nM in data set [23]. In addition, in the data set with LNCaP [16], the GI50 (commonly the concentration giving 50% growth inhibition) amounted to 74 nM. For the same compound, the concentration at 240 h in data set [18] is approximately 20 µM. For the same compound, the Activity in the data set with LNCaP C4-2 [20] is more than 90%.
